In patent US10709707B2, “Methods of treating ocular conditions” (Oyster Point Pharma, Inc., priority 2016, dated 2020):
Where “and” joins values, the source holds several entries; their conditions need not be identical. Equal entries are not always repeated. Entries after “also recorded” stand apart in the source; their conditions may differ.

Tests used:
human α3β2 = target: T1, human α3β2 (Homo sapiens, UniProt P17787+P32297); test: Receptor binding α3β2, recombinant human receptors in HEK cells; conditions: [3H]-S-nicotine, human α3β2 expressed in HEK cells
T1 construct: expressed in transfected cells

human α7 = target: T2, human α7 (Homo sapiens, UniProt P36544); test: Receptor binding α7, recombinant human receptors in HEK cells; conditions: human α7 expressed in HEK cells
T2 construct: expressed in transfected cells; host or cells: HEK cells (per the earlier reading)

α4β2 (rat), a4b2*/a6b2* = test: Receptor function, [3H]-dopamine release from rat striatal synaptosomes; type: biochemical
a3b2 = target: T3, a3b2 (Homo sapiens, UniProt P17787+P32297); test: Receptor function a3b2, Ca++ flux; type: cell-based
T3 construct: expressed in transfected cells

[1] = system: neuronal nicotinic receptors; test: In vitro binding (off-target receptors) at 10 μM; conditions: hemigalactarate salt
[2] = system: muscarinic (non-selective) sites; test: In vitro binding (off-target receptors) at 10 μM; conditions: hemigalactarate salt
[3] = target: remaining muscarinic subtypes; test: Follow-up dose response binding assay (CEREP)
[4] = system: paclitaxel-induced neuropathy, allodynia; test: Reversing symptoms of paclitaxel-induced neuropathy; type: in vivo, Rat
Rabbit Purkinje fibers = test: Cardiovascular safety, rabbit Purkinje fibers in vitro
[5] = Cardiovascular safety, guinea pig iv; type: in vivo; conditions: guinea pig, in vivo; intravenous
[6] = system: blood pressure, heart rate, ECG; test: Cardiovascular safety, guinea pig iv; type: in vivo
[7] = Cardiovascular safety, telemetry in conscious dogs po; type: in vivo, Dog: Beagle; conditions: beagle, dog, in vivo; 5, 10, 20 mg/kg po; read-out: terminal half-life (TK)
[8] = system: blood pressure, heart rate, ECG; test: as above; type: in vivo, Dog: Beagle
respiratory parameters = test: Respiratory safety pharmacology; type: in vivo, Rat: Sprague-Dawley
Distribution coefficient = type: physicochemical; conditions: pH 7.4
[9] = Single dose pharmacokinetics, mouse; type: in vivo, Swiss mouse; conditions: for half-life: po, 1 mg/kg
[10] = stability in human liver microsomes, heat-treated human liver microsomes and human S9 fractions; type: in vitro ADME; conditions: all test systems
From the text: In human and monkey, the primary route of metabolism was through oxidation of the pyrrolidine ring (metabolite M02) before further metabolism via dioxidation to M1 or M3. In humans, parent accounted for 37% of extracellular radioactivity, M02 was 13.9%.M1 was 4.1% and M3 was 1.1%. In monkey, parent accounted for 14.2%, M02 was 5.0%, M1 was 5.8% and M3 was 29.4%. In the rat, the primary metabolite is an N-oxide-pyrimidine derivative (M9); it accounted for 71.9% of extracellular radioactivity while parent represented only 1.4%.

[11] = 13-week repeat-dose oral toxicity in Cynomolgus monkeys; type: in vivo, Cynomolgus monkey; conditions: for AUC / Cmax: plasma, po, at the NOAEL (30 mg/kg); for incidence of mild interstitial vacuolization in the heart: 60 mg/kg
Method: Compound 1 was given to Cynomolgus monkeys once daily for at least 13 weeks via oral gavage at doses of 10, 30, or 60 mg/kg/day. At the end of the dosing period, 2 monkeys per sex in the high-dose and control dose groups were selected for a recovery of 4 weeks. […] In the surviving monkeys at 60 mg/kg/day, clinical observations included emesis, decreased motor activity, body weight loss, slight increases in QT (up to +16%), QTcB (up to +9.2%), and QTcF (up to +11%) intervals that were associated with slight decreases in heart rate. These findings had resolved by the end of the 4-week recovery period. […] At 30 mg/kg, all animals had emesis, but they had fewer episodes of emesis than the animals dosed at 60 mg/kg. The dose of 30 mg/kg was well tolerated and was considered the NOAEL, Cmax and AUC increased less than proportionally at doses between 10 and 30 mg/kg.

Ames test = type: cell-based; conditions: in vitro
From the text: Compound 1 was negative for mutagenicity in both in vitro bioassays—including an Ames test, a micronucleus test in mouse lymphoma cells, and a chromosome aberration assay using cultured human peripheral blood lymphocytes—and an in vivo rat bone marrow micronucleus test.

[12] = system: subjects (intranasal administration); test: Panel of compounds administered intranasally: effect on tearing and discomfort response; conditions: 50 microliters intranasally, three subjects, 0.01 mg/mL increased logarithmically up to 10 mg/mL
Method: A panel of twenty compounds with various receptor binding profiles, including other nicotinic acetylcholine receptor (nAchR) agonists were tested. At the onset of the experiment, 50 microliters of a 0.01 mg/mL compound formulation was administered intranasally to three subjects.

[13] = [3H] DA release, Rat Striatal Synaptosomes
[14] = [3H]-DA release, rat striatal synaptosomes
[15] = 2.5, 5, 10 mg/kg po once daily for 5 days
[16] = plasma, Swiss mouse, 1.0 mg/kg Compound 1, oral
[17] = female, cynomolgus monkey, females
[18] = surviving monkeys, 60 mg/kg/day

T3 sequence (P32297 32-505): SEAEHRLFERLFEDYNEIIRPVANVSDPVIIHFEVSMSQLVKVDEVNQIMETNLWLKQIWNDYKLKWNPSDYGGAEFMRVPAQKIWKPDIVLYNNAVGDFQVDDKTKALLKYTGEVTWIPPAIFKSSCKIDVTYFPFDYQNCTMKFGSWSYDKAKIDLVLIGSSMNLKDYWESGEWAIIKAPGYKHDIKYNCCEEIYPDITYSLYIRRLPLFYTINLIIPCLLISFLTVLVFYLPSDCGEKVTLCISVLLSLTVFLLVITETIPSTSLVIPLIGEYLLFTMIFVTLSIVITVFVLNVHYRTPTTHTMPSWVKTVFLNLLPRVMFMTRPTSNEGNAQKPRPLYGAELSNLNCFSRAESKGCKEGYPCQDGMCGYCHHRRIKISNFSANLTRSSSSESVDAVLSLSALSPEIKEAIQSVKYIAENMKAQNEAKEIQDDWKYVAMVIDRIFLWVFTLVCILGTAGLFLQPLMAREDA
T3 sequence (P17787 26-502): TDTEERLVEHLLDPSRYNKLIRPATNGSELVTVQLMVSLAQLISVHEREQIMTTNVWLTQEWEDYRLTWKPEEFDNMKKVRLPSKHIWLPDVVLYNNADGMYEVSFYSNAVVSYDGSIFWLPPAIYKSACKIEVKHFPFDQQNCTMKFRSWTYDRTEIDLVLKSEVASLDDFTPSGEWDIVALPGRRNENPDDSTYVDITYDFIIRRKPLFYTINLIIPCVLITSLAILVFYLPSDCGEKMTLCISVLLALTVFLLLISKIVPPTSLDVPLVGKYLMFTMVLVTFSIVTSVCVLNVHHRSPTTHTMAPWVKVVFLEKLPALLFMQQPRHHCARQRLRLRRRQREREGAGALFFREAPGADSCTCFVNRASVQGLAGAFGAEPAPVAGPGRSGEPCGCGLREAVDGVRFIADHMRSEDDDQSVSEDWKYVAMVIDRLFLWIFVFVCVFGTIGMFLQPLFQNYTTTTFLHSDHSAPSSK
T1 sequence (P32297 32-505): as the sequence (P32297 32-505) above
T1 sequence (P17787 26-502): as the sequence (P17787 26-502) above
T2 sequence (P36544 23-502): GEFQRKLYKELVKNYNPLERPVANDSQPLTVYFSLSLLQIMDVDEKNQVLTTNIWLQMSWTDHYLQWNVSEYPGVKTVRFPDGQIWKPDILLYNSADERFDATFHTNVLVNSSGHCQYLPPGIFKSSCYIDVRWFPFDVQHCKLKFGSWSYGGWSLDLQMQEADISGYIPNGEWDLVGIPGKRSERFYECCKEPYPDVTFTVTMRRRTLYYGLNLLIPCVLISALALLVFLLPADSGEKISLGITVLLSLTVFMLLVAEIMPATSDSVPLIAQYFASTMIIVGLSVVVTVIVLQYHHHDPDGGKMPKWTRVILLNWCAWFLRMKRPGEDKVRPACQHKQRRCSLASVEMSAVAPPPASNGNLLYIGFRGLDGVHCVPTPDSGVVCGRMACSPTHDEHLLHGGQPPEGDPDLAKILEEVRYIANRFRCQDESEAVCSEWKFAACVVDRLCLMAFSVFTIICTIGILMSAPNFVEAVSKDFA

C(=C\[C@H]1CCNC1)/c1cncnc1 [Compound 1, (R)-5-((E)-2-pyrrolidin-3-ylvinyl)pyrimidine]
Ki (human α3β2): 0.027 µM | Ki (human α7): 15 µM | DA Release ratio (α4β2 (rat), a4b2*/a6b2*; [13]): 0.55 DA | EC50 (α4β2 (rat), a4b2*/a6b2*; [13]): 3.9 µM and 3.93 µM | Emax (α4β2 (rat), a4b2*/a6b2*; [13]): 110 and 114 | EC50 (α4β2 (rat), a4b2*/a6b2*; [14]): 3.93 µM | Emax (α4β2 (rat), a4b2*/a6b2*; [14]): 114 % of nicotine | agonist type at the α4β2 subtype (α4β2 (rat), a4b2*/a6b2*; [14]): nM. Compound 1 is a full agonist at the α4β2 | EC50 (a3b2; Human a3b2, Ca++ Flux): 8.7 µM | Emax (a3b2; Human a3b2, Ca++ Flux): 66% | agonist type (a3b2; α3β2 subtype): partial agonist | binding affinity [1]: nicotinic receptors (100%), the only | binding affinity [2]: sites (51%). | Ki [3]: > 10 µM | allodynia vs vehicle-treated group ([4]; 3 weeks post-dosing, only the 0.1 mg/kg dose): significantly different from vehicle. | allodynia vs vehicle-treated group ([4]; once daily po 0.01, 0.1, 1.0 mg/kg, all doses, 4 weeks post-paclitaxel dosing): at all doses significantly reduced | reversing tactile allodynia ([4]; paclitaxel-induced, 0.01-1 mg/kg p.o.): efficacious | lengthening of action potential duration (Rabbit Purkinje fibers; 30 μM): 7% | lengthening of action potential duration (Rabbit Purkinje fibers; 100 μM): 20% | resting membrane potential, action potential amplitude, Vmax (Rabbit Purkinje fibers; any concentration (3-100 μM)): no effect on resting membrane potential, | action potential duration (Rabbit Purkinje fibers; at 3 and 10 μM): no effect | action potential duration (Rabbit Purkinje fibers; at 30 and 100 μM, concentration dependent): dependent lengthening of the action | MTD [5]: 0.3 mg/kg | effects on QTc ([6]; 1 mg/kg iv): doses up to 0.3 mg/kg, mild and reversible | lethality ([6]; 10 mg/kg iv): 10 mg/kg was lethal. | peak increase in heart rate ([6]; 1, 3, and 10 mg/kg iv): rate was 41 beats per minute. | peak increase in systolic blood pressure ([6]; 1, 3, and 10 mg/kg iv): 58 mmHg; and the peak increase in heart | time in which effects resolved ([6]; 1 and 3 mg/kg iv): 3 min | effects on QTc/ECG ([6]; 3 and 10 mg/kg iv): effects on QTc at 1 mg/kg, and severe | effects on ECGs ([6]; doses up to 0.3 mg/kg iv): Compound 1 caused no effects on ECGs at | half-life [7]: 78 to 252 min | other findings ([8]; 5 mg/kg po): 5 mg/kg produced no other findings. | ventricular extrasystole 10 to 25 minutes after dosing ([8]; 10 mg/kg po): 10 mg/kg was associated with 1 | emesis ([8]; 20 mg/kg po): emesis were noted at 20 mg/kg. | lengthening of the QT interval ([8]; 20 mg/kg po): slight lengthening; also recorded: after dosing. In addition, slight | ventricular extrasystole 10 to 25 minutes after dosing ([8]; 20 mg/kg po): 20 mg/kg was associated with 1 | PQ interval [8, 15]: tachycardia, and decreased PQ interval. | QRS duration, QT interval, body temperature [8, 15]: There were no changes in the QRS | accumulation after repeat dosing (TK) [8, 15]: sexes. No accumulation was observed after | tachycardia [8, 15]: pressure (mainly diastolic), marked | dose proportionality of Cmax and AUC (TK) ([8]; 2.5, 5, 10 mg/kg po, either sampling day): TK: There were no proportional increases | increase in blood pressure and bursts of sinus tachycardia ([8]; 5, 10, 20 mg/kg po, all dogs): Compound 1 produced a transient and slight | emesis shortly after dosing ([8]; all doses): exhibited emesis | systolic and diastolic blood pressure and heart rate ([8]; oral doses up to 10 mg/kg): non-dose dependent increase | respiratory rate, minute volume, peak inspiratory flow (respiratory parameters; 100 mg/kg po): Transient adverse effects; also recorded: shortlasting increase in respiratory rate, | respiratory parameters (respiratory parameters; 10 and 30 mg/kg po): 10 and 30 mg/kg did not cause changes | tidal volume and index of airway resistance (respiratory parameters; 5 hour observation period): There were no changes in tidal volume and | NOEL, respiratory (respiratory parameters; po): The NOEL was 30 mg/kg. | logD (Distribution coefficient): < 1 | Kp ([9]; Swiss, mouse, brain, oral, 1 mg/kg orally, read-out: brain exposure as share of plasma exposure): ~0.3 | half-life ([9]; Swiss, mouse, plasma, 1 mg/kg orally, read-out: terminal elimination half-life (converted)): ~30 min | half-life ([9]; Swiss, mouse, plasma, Swiss mouse, 1.0 mg/kg Compound 1, oral, read-out: t1/2 (converted)): 30 min | Cmax [9, 16]: 15 ng/mL | Tmax [9, 16]: 10 min | AUC(0-t) ([9]; plasma, Swiss mouse, 1.0 mg/kg Compound 1, oral, t = 25 h, read-out: AUC0-1): 10.1 ng·h/mL | metabolic stability [10]: relatively stable | NOAEL at 13 weeks ([11]; both sexes, cynomolgus monkey, in vivo, Cynomolgus monkeys, oral gavage once daily, 13 weeks): 30 mg/kg | AUC [11, 17]: 2440 ng·h/mL | Cmax [11, 17]: 696 ng/mL | incidence of mild interstitial vacuolization in the heart ([11]; females): 2 of 3 | AUC ([11]; male, cynomolgus monkey, males): 1670 ng·h/mL | Cmax ([11]; male, cynomolgus monkey, males): 382 ng/mL | incidence of mild interstitial vacuolization in the heart ([11]; males): 1 of 2 | body weight loss vs. Day 1 value ([11]; one monkey at 60 mg/kg/day sacrificed during the fourth week): −22% | increase in QT interval [11, 18]: up to +16% | increase in QTcB interval [11, 18]: up to +9.2% | increase in QTcF interval [11, 18]: up to +11% | mutagenicity, Ames test (Ames test): negative | Causes Tearing [12]: Yes | Discomfort Response [12]: No
